Data taken from article PMC10976477 (RSC Advances, 2024).

What was measured:
human MAO-B = biological target: T1, human MAO-B (Homo sapiens, UniProt P27338); assay: MAO-B inhibition assay; type: biochemical
T1 sequence (P27338 1-520): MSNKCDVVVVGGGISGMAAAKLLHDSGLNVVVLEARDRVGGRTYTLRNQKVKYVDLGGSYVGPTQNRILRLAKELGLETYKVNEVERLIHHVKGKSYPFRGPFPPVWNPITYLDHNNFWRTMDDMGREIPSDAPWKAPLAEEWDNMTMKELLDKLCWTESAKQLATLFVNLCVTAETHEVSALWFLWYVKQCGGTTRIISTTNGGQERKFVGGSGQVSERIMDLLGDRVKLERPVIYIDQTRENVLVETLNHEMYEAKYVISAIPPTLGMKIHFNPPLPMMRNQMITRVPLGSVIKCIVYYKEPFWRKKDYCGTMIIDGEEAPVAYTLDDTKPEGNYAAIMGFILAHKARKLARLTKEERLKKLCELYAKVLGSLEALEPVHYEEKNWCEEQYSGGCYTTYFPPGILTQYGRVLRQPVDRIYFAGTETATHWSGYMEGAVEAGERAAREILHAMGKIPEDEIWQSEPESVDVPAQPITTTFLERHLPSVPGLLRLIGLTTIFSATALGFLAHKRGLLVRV

human MAO-A = biological target: T2, human MAO-A (Homo sapiens, UniProt P21397); assay: MAO-A inhibition assay; type: biochemical; settings: read-out: IC50 (μM) ± SEM MAO-A; mean ± SEM; n = 3
T2 sequence (P21397 1-527): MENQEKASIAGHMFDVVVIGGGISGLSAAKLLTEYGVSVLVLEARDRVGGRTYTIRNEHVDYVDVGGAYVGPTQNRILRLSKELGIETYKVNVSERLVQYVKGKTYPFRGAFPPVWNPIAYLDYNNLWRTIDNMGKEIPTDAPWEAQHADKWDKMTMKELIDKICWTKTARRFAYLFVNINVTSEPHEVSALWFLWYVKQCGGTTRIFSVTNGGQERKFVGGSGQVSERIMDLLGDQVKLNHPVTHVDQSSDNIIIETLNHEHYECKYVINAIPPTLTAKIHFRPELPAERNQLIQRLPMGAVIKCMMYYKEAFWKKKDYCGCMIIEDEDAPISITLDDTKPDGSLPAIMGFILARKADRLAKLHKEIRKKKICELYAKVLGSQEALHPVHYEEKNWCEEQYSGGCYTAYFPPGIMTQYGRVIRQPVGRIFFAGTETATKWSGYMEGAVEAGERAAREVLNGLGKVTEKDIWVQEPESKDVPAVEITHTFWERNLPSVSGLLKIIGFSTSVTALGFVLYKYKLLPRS

eeAChE = eeAChE (Electrophorus electricus, UniProt O42275); assay: Cholinesterase inhibition, Ellman's assay; type: biochemical, electric eel
eqBChE = eqBChE (Equus caballus, UniProt P81908); assay: Cholinesterase inhibition, Ellman's assay; settings: read-out: IC50 (μM) ± SEM eqBChE; mean ± SEM; n = 3
[1] = ABTS radical cation scavenging assay; settings: read-out: IC50 (μM) ± SEM ABTS
[2] = DPPH radical scavenging assay; settings: read-out: IC50 (μM) ± SEM DPPH

Sequence of eeAChE (O42275 24-633): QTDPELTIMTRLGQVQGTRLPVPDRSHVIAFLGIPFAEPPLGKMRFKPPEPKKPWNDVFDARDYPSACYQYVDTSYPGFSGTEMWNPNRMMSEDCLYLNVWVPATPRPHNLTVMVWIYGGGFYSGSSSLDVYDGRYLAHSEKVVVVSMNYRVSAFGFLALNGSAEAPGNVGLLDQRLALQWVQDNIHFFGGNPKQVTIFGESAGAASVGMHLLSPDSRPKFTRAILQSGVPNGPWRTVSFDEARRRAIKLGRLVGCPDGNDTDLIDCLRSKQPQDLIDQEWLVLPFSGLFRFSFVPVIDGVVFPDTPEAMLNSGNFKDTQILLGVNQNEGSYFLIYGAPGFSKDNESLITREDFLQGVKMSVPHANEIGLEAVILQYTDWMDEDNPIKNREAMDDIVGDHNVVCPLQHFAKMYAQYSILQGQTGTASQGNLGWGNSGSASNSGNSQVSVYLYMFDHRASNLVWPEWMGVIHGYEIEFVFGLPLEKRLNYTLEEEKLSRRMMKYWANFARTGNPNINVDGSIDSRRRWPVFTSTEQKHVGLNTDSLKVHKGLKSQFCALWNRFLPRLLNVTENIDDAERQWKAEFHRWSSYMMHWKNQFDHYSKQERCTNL
Sequence of eqBChE (P81908 whole entry): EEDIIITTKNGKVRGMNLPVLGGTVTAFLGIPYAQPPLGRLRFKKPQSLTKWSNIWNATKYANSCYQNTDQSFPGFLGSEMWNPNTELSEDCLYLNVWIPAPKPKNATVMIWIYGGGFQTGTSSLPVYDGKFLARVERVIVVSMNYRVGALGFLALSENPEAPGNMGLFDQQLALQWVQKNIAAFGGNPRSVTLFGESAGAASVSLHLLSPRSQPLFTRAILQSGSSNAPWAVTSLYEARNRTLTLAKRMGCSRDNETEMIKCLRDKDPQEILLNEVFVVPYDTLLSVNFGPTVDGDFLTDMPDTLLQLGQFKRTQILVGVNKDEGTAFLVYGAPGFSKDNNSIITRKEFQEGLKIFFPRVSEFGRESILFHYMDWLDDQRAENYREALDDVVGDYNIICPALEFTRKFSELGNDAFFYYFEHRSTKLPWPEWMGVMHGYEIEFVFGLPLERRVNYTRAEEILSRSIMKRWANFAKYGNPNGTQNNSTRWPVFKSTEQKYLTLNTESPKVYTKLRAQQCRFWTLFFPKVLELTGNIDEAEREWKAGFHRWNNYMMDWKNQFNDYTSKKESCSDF

SMILES: COc1cc(/C=C/C(=O)Nc2nc3ccc(O)cc3s2)ccc1OCc1ccccc1 [Compound 22, (E)-3-(4-(Benzyloxy)-3-methoxyphenyl)-N-(6-hydroxybenzo[d]thi-azol-2-yl)acrylamide]
- IC50 (human MAO-B; read-out: IC50 (μM) ± SEM MAO-B, mean ± SEM, n = 3): 0.348 ± 0.041 µM
- SI = IC50 of MAO-A/IC50 of MAO-B (human MAO-B; selectivity index): 55
- IC50 (human MAO-A): 19.4 ± 1.1 µM
- IC50 (eeAChE; read-out: IC50 (μM) ± SEM eeAChE, mean ± SEM, n = 3): 0.172 ± 0.1 µM
- SI = IC50 of BChE/IC50 of AChE (eeAChE; selectivity index): 217
- IC50 (eqBChE): 37.4 ± 1.17 µM
- IC50 [1]: 43.2 ± 1.34 µM
- IC50 [2]: 16.33 ± 0.1 µM
